Columns and labels:
[1] = Test for linoleic acid autooxidation inhibitory effect; type: biochemical; conditions: sample 0.01% (w/v) in ethanol, stored in darkness at 40° C., degree of oxidation after two weeks, FIGS. 1 and 2
Procedure: <Test for Linoleic Acid Autooxidation Inhibitory Effect> 2 ml of 2.5% (w/v) linoleic acid was mixed with 4 ml of a 0.05 M phosphate buffer (pH 7.0) to prepare a reaction liquid. The compound of the present invention was dissolved in 99.5% ethanol at a concentration of 0.01% (w/v) 2 ml of the resulting solution and 2 ml of distilled water were added to the reaction liquid to make the total volume to 10 ml, mixed, and placed in a brown threaded bottle to prepare a sample. A negative control was prepared by adding, to the reaction liquid, only 2 ml of 99.5% ethanol and 2 ml of distilled water, without adding anything else. […] The measurement was carried out by mixing 0.1 ml of a sample, 9.7 ml of 75% ethanol, and 0.1 ml of a 30% ammonium thiocyanate solution, adding 0.1 ml of 2×10^−2 M ferrous chloride (3.5% hydrochloric acid solution) thereto, and exactly 3 minutes later, measuring the absorbance at 500 nm. From the measured values, the difference in absorbance and the rate of autooxidation after two weeks were obtained. The same measurement was made with the blanks, and ΔAbsorbance=(Absorbance of Main Sample)−(Absorbance of Blank) was taken. The absorbance increases with oxidation of the sample, and after reaching the maximum, decreases with consumption of the sample to be oxidized. Thus earlier occurrence of the peak absorbance represents weaker antioxidative activity. […]

[2] = DPPH radical scavenging test; type: biochemical; conditions: concentration of the sample solution; acetate buffer pH 5.5, 30° C., 30 minutes, absorbance at 517 nm
Procedure: The antioxidative activity of the compound of not lower than 95% purity of the present invention prepared in Example 1 was evaluated using a stable radical, 1,1-diphenyl-2-picrylhydrazyl (DPPH).
To 1600 μl of 250 mM acetate buffer (pH=5.5), 1200 μl of ethanol and 400 μl of a sample (at an arbitrary concentration in ethanol) were mixed, and pre-incubated at 30° C. for 5 minutes. 800 μl of a 500 μM DPPH/ethanol solution was added, mixed, and left to stand at 30° C. for 30 minutes. Then the absorbance of the sample at 517 nm was measured.
A negative control was prepared by adding, instead of the sample solution, only ethanol to the reaction liquid without adding anything else. A positive control was prepared in the same way as for the present compound at the same concentration in ethanol, except that the present compound was replaced with α-tocopherol. From the measured absorbances, the radical scavenging ratio was calculated in accordance with the following formula. Scavenging ratio (%)=(1−[Absorbance of Sample]/[Absorbance of Control])×100
The scavenging ratios were measured with the sample concentration in the sample solution being changed stepwise, to determine the concentration of the sample solution at which the DPPH radical scavenging ratio was 50%. This concentration was taken as the 50% DPPH radical scavenged concentration. […]

Compound | antioxidative activity (oxidation inhibitory effect on linoleic acid) [1] | 50% DPPH radical scavenged concentration [2]
O=C(O)c1cc(O)c(O)c(O)c1 [gallic acid] | weaker oxidation inhibitory effect on linoleic acid | 
Cc1c(C)c2c(c(C)c1O)CC[C@@](C)(CCC[C@H](C)CCC[C@H](C)CCCC(C)C)O2 [α-tocopherol] |  | 121.5 µg/mL

Reference: patent US7074907B2, “Compound, process for producing the same and use thereof” (Nichirei Biosciences Inc., priority 2003, dated 2006)
